Columns and labels:
[1] = Competitive inhibition of Penicillium fellutanum exo-beta-galactofuranosidase assessed as 4-Nitrophenyl beta-D-galactofuranoside conversion to 4-nitrophenol after 1.5 hrs by Lineweaver-Burk plot analysis
[2] = Inhibition of Penicillium fellutanum exo-beta-galactofuranosidase assessed as 4-Nitrophenyl beta-D-galactofuranoside conversion to 4-nitrophenol after 1.5 hrs by spectrophotometric analysis

SMILES: O=C1O[C@@H]([C@H](O)CO)[C@H](O)[C@H]1O
- Ki [1]: 100 µM

SMILES: O=[N+]([O-])c1ccc(S[C@@H]2O[C@@H]([C@H](O)CO)[C@H](O)[C@H]2O)cc1
- IC50 [2]: 600 µM

SMILES: CO[C@@H]1O[C@@H]([C@H](O)CS[C@@H]2O[C@@H]([C@H](O)CO)[C@H](O)[C@H]2O)[C@H](O)[C@H]1O
- Ki [1]: 3620 µM

SMILES: Nc1ccc(S[C@@H]2O[C@@H]([C@H](O)CO)[C@H](O)[C@H]2O)cc1
- IC50 [2]: 80 µM

Source: ChEMBL document CHEMBL2384979, “Synthesis of the (1→6)-linked thiodisaccharide of galactofuranose: inhibitory activity against a β-galactofuranosidase” (Bioorg Med Chem, 2013)
